According to patent US20190040584A1, “Use of DIPA-Esterquat Debonder For Tissue And Fluff Pulp Manufacturing” (Evonik Degussa GmbH, priority 2016, published 2019):

Tests used:
[1] = tested on: Fish; test: Fish aqua tox (OECD 203); format: in vivo
[2] = tested on: Daphnia magna; details: in vivo

With “dialkyldimethyl ammonium chloride [Adogen 442]” the “Fish; aqua tox (203); 96 h; LC50” value [1] was 10.1 µg/mL and the “Aquatoxicity, invertebrates, Daphnia magna; (202) 48 h; EC50” value [2] was 0.19 µg/mL.
